Measured values: patent US20080090749A1 (priority 2005, published 2008)
Values joined by “and” are separate entries in the source; they are usually repeats but may differ in a detail not shown here. Identical values can stand only once.

How the values were obtained:
[1] = tested on: diarrhea under stress loading using a stress cage; assay: Stress loading using a stress cage, histidine diet (Example 1), fecal examination; assay type: in vivo, Wistar rats; conditions: for Number of individuals with diarrhea / Number of individuals with soft feces / Number of individuals without diarrhea or soft feces: 8 individuals examined
Method: (§1) After being preliminarily reared on an ordinary diet (CRF-1, Charles River Japan Inc.) for 1 week, Wistar rats (4 weeks of age, male) were fed an ordinary diet (control group) or a histidine diet prepared by mixing finely milled L-histidine hydrochloride at 2% by weight in the ordinary diet (histidine dosing group) for 2 weeks. In the mornings of day 15, day 16, and day 17 after the start of the rearing with the histidine diet, stress loading was performed by the method described below, and the feces excreted by the rats were examined for weight and description.
After being allowed to stand in a small individual cage (13.5×27×12 cm) for about 2 hours, each rat was transferred to a constraint (stress) cage having a size such that the rat cannot move (5×17×4 cm), and further allowed to stand for 2 hours, whereby stress loading was performed (control stress group, histidine dosing stress group). The feces excreted by the rat were examined for description, number, and weight. The stress loading and fecal examination were performed on each individual for three consecutive days.
(§2) Eight rats were used for each group.

[2] = tested on: ulcerative damage of the intestine; conditions: reported; cited from earlier work
[3] = tested on: Histamine; assay: Histamine content in the large intestine of stress-loaded rats by LC/MS; assay type: in vivo, Wistar rats
Method: as §1
(§3) The large intestines of stress-loaded rats were collected and frozen in liquid nitrogen on day 17, and stored at −80° C. until use. Extracted from the frozen samples by the following protocol were noradrenaline, histamine, serotonin and 3-methylhistidine, which were then quantified by LC/MS.
(§4) Each frozen rat tissue (large intestine) stored at −80° C. as disrupted using CryoPress (manufactured by Microtec Co., Ltd.), and 1 mL of methanol per 100 mg at −80° C. was added. The mixture was disrupted using FastPrep (30 sec×2 times), and 0.8 mL of the disruption liquid was recovered. 1 mL of cold chloroform was added thereto, and the mixture was stirred using Vortex for 1 minute, after which 1 mL of cold H2O was added. After the mixture was further stirred using Vortex for 1 minute, it was allowed to stand for 30 minutes. […]

[4] = tested on: Serotonin; assay: Serotonin content in the large intestine of stress-loaded rats by LC/MS; assay type: in vivo, Wistar rats
Method: as §1, §3, §4

[5] = tested on: cholera toxin; conditions: cited from earlier work
[6] = tested on: soft feces due to stress loading by front leg constraint; assay: Stress loading by front leg constraint, histidine oral administration (Example 3), fecal examination; assay type: in vivo, Wistar rats
Method: (§5) After being preliminarily reared on an ordinary diet (CRF-1, Charles River Japan Inc.) for 1 week, Wistar rats (6 weeks of age, male) received histidine given by gavage at a frequency of twice a day (morning and evening) on day 8 and day 9 as described above. A 5 mL dosing volume of 0.5% methylcellulose solution (control solution) for the control group, or a solution of L-histidine hydrochloride dissolved (partially suspended) in 0.5% methylcellulose solution to a content ratio of 1.5 g per kg body weight of each rat for the histidine dosing group, was orally administered using a sonde.
In the morning of day 10, the same histidine solution or control solution as those given on the previous day was once orally administered. One hour later, under low-dose ether anesthesia, stress loading was performed by constraining the front legs with a tape of the Scotch brand. After each animal was allowed to stand for 1 hour in an individual cage, the feces excreted by the rat were examined for description, number, and weight.
as §2

[7] = tested on: 3-methylhistidine; assay: 3-methylhistidine content in the large intestine of stress-loaded rats by LC/MS (index for proteolysis); assay type: in vivo, Wistar rats
Method: as §1, §3, §4

[8] = tested on: diarrhea due to stress loading using a stress cage; assay: Stress loading using a stress cage, histidine bolus oral administration (Example 2), fecal examination; assay type: in vivo, Wistar rats
Method: as §5, with “after the start of the preliminary rearing.” for “as described above.”, “sonde. Stress loading was performed using a stress cage in the same manner as Example 1. That is, after each rat was transferred to a small individual cage (13.5×27×12 cm) in the morning of day 10, and allowed to stand for 2 hours, the same histidine solution or control solution as those given on the previous day were once orally administered. After being allowed to stand in a small individual cage for 2 hours, each rat was transferred to a constraint cage (5×17×4 cm) and allowed to stand for 1 hour, whereby stress loading was performed. The feces excreted by the rat were examined for description, number, and weight.” for “sonde.”
as §2

[9] = tested on: Noradrenaline; assay: Noradrenaline content in the large intestine of stress-loaded rats by LC/MS; assay type: in vivo, Wistar rats; conditions: Stress+ His diet+; day 17; N = 8
Method: as §1, §3, §4

[10] = individual rats, 2% L-histidine hydrochloride diet, stress cage, stress day 1, hydrochloride
[11] = individual rats, 2% L-histidine hydrochloride diet, stress cage, stress day 2, hydrochloride
[12] = individual rats, 2% L-histidine hydrochloride diet, stress cage, stress day 3, hydrochloride
[13] = stress loading Day 1, histidine diet
[14] = stress loading Day 2, histidine diet
[15] = stress loading Day 3, histidine diet
[16] = Stress+ His diet+, day 17, N = 8
[17] = individual rats, 1.5 g per kg oral, front leg constraint 1 hour, hydrochloride
[18] = 8 individuals examined, histidine bolus oral administration
[19] = group mean, 8 rats, 1.5 g per kg oral, stress cage 1 hour
[20] = individual rats, 1.5 g per kg oral, stress cage 1 hour, hydrochloride

Cl.N[C@@H](Cc1c[nH]cn1)C(=O)O [Histidine, L-histidine hydrochloride]
effect of histidine administration on diarrhea ([1]; histidine diet, stress cage, compared to the control group): suppressive effect
Number of feces Day 1 normal feces ([1]; individual rats, 2% L-histidine hydrochloride diet 2 weeks, stress cage 2 hours, stress day 1, hydrochloride): 6 and 3 (2×) and 1 and 11 and 10 and 5 and 0
Fecal weight Total weight Day 1 [1, 10]: 1.01 g and 1.65 g and 1.94 g and 2.23 g and 2.82 g and 2.46 g and 1.77 g and 0.00 g
Number of feces Day 1 diarrhea [1, 10]: 0 (7×) and 1
Number of feces Day 1 soft feces [1, 10]: 0 (3×) and 1 (2×) and 3 (3×)
Fecal weight Total weight Day 2 [1, 11]: 0.58 g and 0.56 g and 4.02 g and 2.38 g and 0.25 g and 3.48 g and 1.28 g and 1.26 g
Number of feces Day 2 diarrhea [1, 11]: 0 (7×) and 2
Number of feces Day 2 normal feces [1, 11]: 4 and 2 and 10 and 8 and 3 and 5 and 6 (2×)
Number of feces Day 2 soft feces [1, 11]: 0 (4×) and 3 and 2 and 5 and 1
Fecal weight Total weight Day 3 [1, 12]: 1.15 g and 0.46 g and 3.27 g and 1.00 g and 2.22 g and 3.99 g and 1.64 g and 0.41 g
Number of feces Day 3 diarrhea [1, 12]: 0 (7×) and 1
Number of feces Day 3 normal feces [1, 12]: 6 (5×) and 1 and 4 and 3
Number of feces Day 3 soft feces [1, 12]: 0 (3×) and 1 (2×) and 4 (2×) and 5
Number of individuals with diarrhea [1, 13]: 1
Number of individuals with soft feces [1, 13]: 5
Number of individuals without diarrhea or soft feces [1, 13]: 3
Number of individuals with diarrhea [1, 14]: 1
Number of individuals with soft feces [1, 14]: 4
Number of individuals without diarrhea or soft feces [1, 14]: 4
Number of individuals with diarrhea [1, 15]: 1
Number of individuals with soft feces [1, 15]: 5
Number of individuals without diarrhea or soft feces [1, 15]: 3
effect on ulcerative damage of the intestine by infectious microorganisms and drugs [2]: Mitigates
Histamine content in the large intestine (Tissue wet weight) [3, 16]: 6.61 nmol/g
effect on increase of histamine tissue content in the large intestine due to stress loading ([3]; histidine diet): tended to be suppressed
Serotonin content in the large intestine (Tissue wet weight) [4, 16]: 6.63 nmol/g
effect on increase of serotonin tissue content in the large intestine due to stress loading ([4]; histidine diet): tended to be suppressed
action on the gut water secretion by cholera toxin [5]: suppressive action
Onset of diarrhea, group line ([6]; Mean line of group, 8 rats): 0
Mean number of normal feces ([6]; Table 8, front leg constraint): 0.88
Mean number of soft feces ([6]; Table 8, front leg constraint): 3.75
Total fecal weight, Mean ([6]; group mean, 8 rats): 1.68
Number of normal feces, Mean ([6]; group mean, 8 rats, Table 7): 0.88
Number of soft feces, Mean ([6]; group mean, 8 rats, Table 7): 3.75
Onset of diarrhea ([6]; individual rats, 1.5 g per kg oral, front leg constraint 1 hour): none
Number of normal feces [6, 17]: 4 and 2 and 0 (5×) and 1
Number of soft feces [6, 17]: 5 (2×) and 2 (2×) and 0 and 6 (2×) and 4
Total fecal weight [6, 17]: 2.12 and 0.73 and 1.03 and 0 and 2.18 and 2.47 and 2.63 and 2.31
effect of histidine administration on diarrhea ([6]; oral administration, front leg constraint, compared to the control group): suppressive effect
3-methylhistidine content in the large intestine (Tissue wet weight) [7, 16]: 0.13 nmol/g
effect on increase of 3-methylhistidine with stress loading ([7]; histidine diet): suppressed
Number of individuals with diarrhea [8, 18]: 0
Number of individuals with soft feces [8, 18]: 8
Number of individuals without diarrhea or soft feces [8, 18]: 0
effect of histidine administration on diarrhea ([8]; bolus oral administration, stress cage, compared to the control group): suppressive effect
Number of normal feces, Mean [8, 19]: 0.125
Number of soft feces, Mean [8, 19]: 6
Total fecal weight, Mean [8, 19]: 1.64 g
Onset of diarrhea, individuals in group ([8]; group of 8 rats, 1.5 g per kg oral, stress cage 1 hour): 0 individual
Onset of diarrhea ([8]; individual rats, 1.5 g per kg oral, stress cage 1 hour): none
Number of normal feces [8, 20]: 0 (7×) and 1
Number of soft feces [8, 20]: 12 and 8 and 3 and 5 and 6 (2×) and 4 (2×)
Total fecal weight [8, 20]: 2.379 g and 2.7 g and 0.852 g and 2.077 g and 1.515 g and 1.975 g and 0.72 g and 0.94 g
Noradrenaline content in the large intestine (Tissue wet weight) [9]: 0.96 nmol/g
